From PMC6247892, “Ficus sycomorus latex: An efficient alternative Egyptian source for horseradish peroxidase in labeling with antibodies for immunodiagnostic kits” (Veterinary World, 2018)
Counter-ions that a name gives are not always drawn. Like-named read-outs stand apart in the source and are kept apart here. Values belong to the compound of their own block, whether it stands above or below them.

Test system: POL (peroxidase of sycamore fig latex)
Experiment: spectrophotometric peroxidase assay, substrate variation
Type: biochemical, Ficus sycomorus
Conditions: co-substrate H2O2, free enzyme, standard assay pH 5.5, room temperature (28-30°C)
Source text: spectrophotometric peroxidase assay, substrate variation on POL (peroxidase of sycamore fig latex)

SMILES: Cc1cc(-c2cc(C)c(N)c(C)c2)cc(C)c1N [3,3`,5,5`tetramethylbenzidine]
Km (read-out: Km (mM substrates) / TMB): 7 ± 0.8 mM

Km (read-out: Km (mM substrates) / 4C-1N): 5 ± 0.6 mM
SMILES: Oc1ccc(Cl)c2ccccc12 [4-chloro-1-naphthol]

Km (read-out: Km (mM substrates) / ABTS): 4.5 ± 0.5 mM
SMILES: CCn1c(=NN=c2sc3cc(S(=O)(=O)O)ccc3n2CC)sc2cc(S(=O)(=O)O)ccc21 [ABTS]

SMILES: Nc1ccccc1N [o-phenylenediamine dihydrochloride]
Km (read-out: Km (mM substrates) / OPD): 5.8 ± 0.4 mM
